# Measurements published in patent US20140213475A1, “METHODS OF DIAGNOSING CANCER USING EPIGENETIC BIOMARKERS” (University of Massachusetts, priority 2011, published 2014).
# Experiments:
# [1] = test system: normal human fibroblasts (Tig-1); assay: BMI-1/Ring1B (PRC1) CAP body formation in normal fibroblasts after treatment with DNA demethylating agent, immunofluorescence and 1q12 DNA FISH; type: cell-based; settings: for number of CAP positive cells: 0.2 ug/ml added fresh daily
# Excerpt: (§1) FIGS. 6A-6E. […] FIG. 6C is a photomicrograph showing that longer treatment (8 days total) results in aberrant expression of Sat II RNA from other loci that are not associated with BMI-1 bodies.
# (§2) Importantly, aberrant Sat II RNA foci also appeared with longer term 5-aza-2d treatment, and importantly from sites distinct from 1q12 bearing the accumulated BMI-1 bodies (FIG. 6C). Aberrant Sat II expression was not seen in control or 1 day treated cells, was rare on day 3 and in ˜5-10% of cells by day 8. These findings reveal significant mechanistic insight into why PcG proteins so markedly accumulate at 1q12 in cancer but not normal cells, and provide important evidence of a link between two intensely studied areas of cancer epigenetics, DNA methylation and polycomb proteins.
# (§3) Twenty two cell lines were examined in this study (list in Supplement), and grown in conditions recommended by suppliers (ATCC, Cambrex, and Coriell). 5-azacytidine (6 mM) and 5-aza-2′deoxycytidine (0.2 ug/ml) was added fresh daily to asynchronously growing cultures and refreshed every day. Our standard fixation protocols have been detailed previously (Johnson et al., 1991; Tam et al., 2002), and summarized in the Supplement. Human effusions were fixed as for cultured cells and tissue blocks were cryosectioned onto cold glass slides (HistoBond+), and stored at −80 briefly until fixation. Of four fixations tested (Supplement) the one that gave best results was brief triton extraction followed by paraformaldehyde fixation and storage in ETOH.
# Simultaneous DNA/RNA and antibody detection: Most antibodies were used prior to RNA or DNA hybridization. Briefly, slides were incubated in the appropriate dilution of primary antibody in 1% BSA, 1xPBS and 1 U/ul RNasin, for 1 hour at 37 C. Slides were washed, and immunodetection was performed using 1:500 dilution of appropriately conjugated (Alexa 488 or Alexa 594, Invitrogen) secondary (anti-goat, mouse or rabbit) antibody, in 1×PBS with 1% BSA. The antibody signal is fixed in 4% paraformaldehyde for 10 min prior to hybridization (performed as detailed above), and all slides were counter stained with DAPI. Vectashield (Vector Labs) was used as mounting media for all fluorescence imaging.
# [2] = test system: normal human fibroblasts (Tig-1); assay: Aberrant Sat II RNA foci in normal fibroblasts after treatment with DNA demethylating agent, RNA FISH; type: cell-based
# Excerpt: as §1, §2, §3
# Sat2-24 nt LNA was used for most images unless otherwise indicated. Several methods of Sat 2 probe labeling and detection were tested (see below). RNA-specific hybridization was carried out under non-denaturing conditions where the DNA was not accessible. Oligos were usually hybridized at 15% formamide conditions, but were also compared to higher stringency hybridizations at 40% and 50% formamide. […]
# [3] = test system: Sat II on Chromosome 1; settings: Ji et al., 1997; cited from earlier work
smiles,measurement,setting,value
"Nc1ncn([C@H]2C[C@H](O)[C@@H](CO)O2)c(=O)n1 [5-aza-2d, 5-aza-2′-deoxycytidine]",number of CAP bodies per cell,[1]; Day 1 of treatment,~2
same,number of CAP positive cells,[1]; Day 1 of treatment,15%
same,number of CAP positive cells,[1]; Day 3 of treatment,52%
same,number of CAP bodies per cell,[1]; Day 8 of treatment,~4
same,number of CAP positive cells,[1]; Day 8 of treatment,80%
same,aberrant Sat II expression (Sat II RNA foci),[2]; 1 day treated cells,not seen
same,aberrant Sat II expression (Sat II RNA foci),[2]; day 3 of treatment,rare
same,"aberrant Sat II expression (Sat II RNA foci), cells positive",[2]; day 8 of treatment,5-10 % of cells
same,demethylation of Sat II on Chromosome 1,[3],effectively demethylate Sat II on Chromosome 1
